Test [1] concerns the target T1, ALK2 R206H (GST-tagged mutant ALK2) (Homo sapiens, UniProt Q04771, R206H).
T1 construct: purchased Carna Bioscience or ThermoFisher 09-148 or PV6232
T1 sequence (Q04771 21-509 R206H): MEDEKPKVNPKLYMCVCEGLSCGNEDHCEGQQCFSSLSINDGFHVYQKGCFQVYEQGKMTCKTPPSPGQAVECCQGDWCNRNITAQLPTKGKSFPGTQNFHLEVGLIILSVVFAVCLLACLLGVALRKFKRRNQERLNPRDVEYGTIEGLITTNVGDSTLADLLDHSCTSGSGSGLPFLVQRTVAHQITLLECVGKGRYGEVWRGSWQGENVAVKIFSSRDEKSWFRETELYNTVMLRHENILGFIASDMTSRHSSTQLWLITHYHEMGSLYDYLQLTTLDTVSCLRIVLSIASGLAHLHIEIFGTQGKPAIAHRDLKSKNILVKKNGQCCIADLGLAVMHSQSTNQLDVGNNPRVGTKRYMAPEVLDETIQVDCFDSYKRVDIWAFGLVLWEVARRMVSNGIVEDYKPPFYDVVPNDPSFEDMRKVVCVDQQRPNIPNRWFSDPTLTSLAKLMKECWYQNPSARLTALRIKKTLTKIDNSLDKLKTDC
As to the kind of experiment: ALK binding assay (LANTHASCREEN TR-FRET competitive binding, displacement of Kinase Tracer 178). Conditions: ALK2 R206H, LANTHASCREEN TR-FRET competitive binding; read-out: Binding Assay (IC50).

The next test concerns the target T2, human ALK2 R206H (Homo sapiens, UniProt Q04771, R206H).
T2 construct: expressed in transfected cells; host or cells: HEK293 (ATCC CRL1573), lentivirus transduction, blasticidin selection
T2 sequence (Q04771 21-509 R206H): T1 sequence (Q04771 21-509 R206H)
Put plainly: Cell-based ALK2-R206H cell activity assay (Smad1-Ser463/Ser465 phosphorylation by AlphaLISA in HEK293-ALK2-R206H cells). As to conditions: read-out: Cell Line (Cell Assay IC50). The procedure, abridged: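 Stable HEK293 cells expressing C-terminally FLAG-tagged human ALK2 R206H (lentiviral, blasticidin-selected) were treated with compounds in 10-point, 3-fold dilutions from 10 μM or 1 μM top, in duplicate. Smad1 Ser463/Ser465 phosphorylation was read by AlphaLISA.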

What is called IC50 is the midpoint of a concentration-inhibition curve. As for `NC1CCN(c2ccc(-c3cc4c(N5CCN(C(=O)C6CC6)CC5)ccnn4c3)cc2)CC1` [Compound 158], the IC50 in test [1] was under 10 nM; at human ALK2 R206H it was 100 to 500 nM.

On to `CC(C)N1CC2(CN(c3ccc(-c4cc5c(N6CCN(C(=O)C7CC7)CC6)ccnn5c4)cc3)C2)C1` [Compound 308], for which the half-maximal inhibitory concentration (IC50) is under 10 nM in test [1] and under 100 nM on human ALK2 R206H.

As to `CCN1CCN(c2ccc(-c3cc4c(N5CCN(C(=O)C6CC6)CC5)ccnn4c3)cc2)CC1(C)C` [Compound 316], the concentration for half-maximal inhibition (IC50) in test [1] is under 10 nM; at human ALK2 R206H, 100 to 500 nM.

As to `CCOC(=O)N1CCN(c2ccnn3cc(-c4ccc(C5(OC)CCN(C(C)C)CC5)cc4)cc23)CC1` [Compound 643], the half-inhibitory concentration (IC50) in test [1] was under 10 nM; on human ALK2 R206H, under 100 nM.

On to `CC(C)N[C@@H](CO)c1ccc(-c2cc3c(N4CCN(C(=O)OC5COC5)CC4)ccnn3c2)cc1` [Compound 792], for which the IC50 is under 10 nM in test [1] and under 100 nM on human ALK2 R206H.

`CCOC(=O)N1CCN(c2ccnn3cc(-c4ccc([C@]5(OC)CCCNC5)cn4)cc23)CC1` [Compound 796]: the IC50 was under 10 nM in test [1] and under 100 nM at human ALK2 R206H.

As for `CO[C@@]1(c2ccc(-c3cc4c(N5CCN(C(=O)C6CC6)CC5)ccnn4c3)cc2F)CCCN(C(C)C)C1` [Compound 684], the figures for the half-inhibitory concentration (IC50) (in test [1]; on human ALK2 R206H) were under 10 nM and under 100 nM, respectively.

Regarding `CCNC(=O)N1CCN(c2ccnn3cc(-c4ccc(N5CCN(C(C)C)CC5)cc4)cc23)CC1` [Compound 289], the results for the IC50 (in test [1]; at human ALK2 R206H) were under 10 nM and under 100 nM, respectively.

In the case of `CC(C)N[C@H](CO)c1ccc(-c2cc3c(N4CCN(C(=O)OC5COC5)CC4)ccnn3c2)cc1` [Compound 791], the IC50 in test [1] is under 10 nM; on human ALK2 R206H, under 100 nM.

As for `CC(C)N1CCC(C#N)(c2ccc(-c3cc4c(N5CCN(C(=O)C6CC6)CC5)ccnn4c3)cc2)CC1` [Compound 615], the 50% inhibitory concentration (IC50) in test [1] is under 10 nM; at human ALK2 R206H, under 100 nM.

Take `COC1(c2ccc(-c3cc4c(N5CCN(C(=O)NC(C)C)CC5)ccnn4c3)nc2)CCN([C@@H](C)COC(F)F)CC1` [Compound 894]: the IC50 is under 10 nM in test [1] and under 100 nM at human ALK2 R206H.

With `CCOC(=O)N1CCN(c2ccnn3cc(-c4cnc(N5CCN(C(C)C)CC5)cn4)cc23)CC1` [Compound 448, ethyl 4-(6-(5-(4-isopropylpiperazin-1-yl)pyrazin-2-yl)pyrrolo[1,2-b]pyridazin-4-yl)piperazine-1-carboxylate], the results for the half-maximal inhibitory concentration (IC50) (in test [1]; on human ALK2 R206H) were under 10 nM and 100 to 500 nM, respectively.

On to `CCN1CCC(c2ccc(-c3cc4c(N5CCN(C(=O)N6CCCC6)CC5)ccnn4c3)cc2)CC1` [Compound 317], for which the values for the IC50 (in test [1]; at human ALK2 R206H) were under 10 nM and 100 to 500 nM, respectively.

For the molecule `CCN1CCCC(c2ccc(-c3cc4c(N5CCN(C(=O)C6CC6)CC5)ccnn4c3)cc2)C1` (stereo not shown) [Compound 202], the values for the 50% inhibitory concentration (IC50) (in test [1]; on human ALK2 R206H) were under 10 nM and under 100 nM, respectively.

Turning to `O=C(C1CC1)N1CCN(c2ccnn3cc(-c4ccc(C5CCCNC5)cc4)cc23)CC1` (stereo not shown) [Compound 123], the IC50 is under 10 nM in test [1] and 100 to 500 nM on human ALK2 R206H.

Take `CCOC(=O)N1CCN(c2ccnn3cc(-c4ccc(C5COCCN5)cc4)cc23)CC1` (stereo not shown) [Compound 468]: the IC50 was under 10 nM in test [1] and under 100 nM at human ALK2 R206H.

For `CC(C)N1CCC(F)(c2ccc(-c3cc4c(N5CCN(C(=O)C6CC6)CC5)ccnn4c3)cc2)CC1` [Compound 583], the concentration for half-maximal inhibition (IC50) is under 10 nM in test [1] and under 100 nM at human ALK2 R206H.

Regarding `COC1(c2ccc(-c3cc4c(N5CCN(C(=O)C6CC6)[C@H](C)C5)ccnn4c3)cc2)CCN(C(C)C)CC1` [Compound 659], the results for the IC50 (in test [1]; on human ALK2 R206H) were under 10 nM and under 100 nM, respectively.

Consider `O=C(OC1COC1)N1CCN(c2ccnn3cc(-c4ccc([C@@]5(F)CCCNC5)cc4)cc23)CC1` [Compound 559], for which the half-inhibitory concentration (IC50) was under 10 nM in test [1] and under 100 nM on human ALK2 R206H.

Regarding `CCOC(=O)N1CCN(c2ccnn3cc(-c4ccc(C5CNCCO5)cc4)cc23)CC1` (stereo not shown) [Compound 144], the IC50 in test [1] is under 10 nM; on human ALK2 R206H, 100 to 500 nM.

Consider `COC[C@@H](C)N1CCC(OC)(c2ccc(-c3cc4c(N5CCN(C(=O)[C@H]6C[C@H](C#N)C6)CC5)ccnn4c3)nc2)CC1` [Compound 749], for which the IC50 in test [1] was under 10 nM; at human ALK2 R206H, under 100 nM.

With `CC(C)N1CCN[C@@](C)(c2ccc(-c3cc4c(N5CCN(C(=O)C6CC6)CC5)ccnn4c3)nc2)C1` [Compound 576], the IC50 is under 10 nM in test [1] and under 100 nM on human ALK2 R206H.

In the case of `N[C@H](CO)c1ccc(-c2cc3c(N4CCN(C(=O)C5CC5)CC4)ccnn3c2)cc1` [Compound 752], the values for the IC50 (in test [1]; at human ALK2 R206H) were under 10 nM and 100 to 500 nM, respectively.

For `O=C(C1CC1)N1CCN(c2ccnn3cc(-c4ccc(C5CN6CCSC6=N5)cc4)cc23)CC1` (stereo not shown) [Compound 515], the IC50 in test [1] is under 10 nM; at human ALK2 R206H, under 100 nM.

Consider `CC(C)NC(=O)N1CCN(c2ccnn3cc(-c4ccc(C5CCN(C(C)C)CC5)cc4)cc23)CC1` [Compound 340], for which the half-maximal inhibitory concentration (IC50) in test [1] is under 10 nM; at human ALK2 R206H, under 100 nM.

For `CC(C)N1CCC(c2ccc(-c3cc4c(N5CCN(C(=O)OCC(F)(F)F)CC5)ccnn4c3)cc2)CC1` [Compound 430], the IC50 in test [1] was under 10 nM; at human ALK2 R206H, under 100 nM.

On to `CCOC(=O)N1CCN(c2ccnn3cc(-c4ccc([C@@]5(OCC)CCCNC5)cc4)cc23)CC1` [Compound 782], for which the IC50 in test [1] is under 10 nM; on human ALK2 R206H, under 100 nM.

With `CCN1CCN(CCOc2ccc(-c3cc4c(N5CCN(C(=O)C6CC6)CC5)ccnn4c3)cc2)CC1` [Compound 390, cyclopropyl(4-(6-(4-(2-(4-ethylpiperazin-1-yl)ethoxy)phenyl)pyrrolo[1,2-b]pyridazin-4-yl)piperazin-1-yl)methanone], the concentration for half-maximal inhibition (IC50) in test [1] was in the range of 10 to 50 nM; at human ALK2 R206H it was 100 to 500 nM.

Take `CC(C)N1CC(c2ccc(-c3cc4c(N5CCN(C(=O)C6CC6)CC5)ccnn4c3)cc2)C1` [Compound 150, cyclopropyl(4-(6-(4-(1-isopropylazetidin-3-yl)phenyl)pyrrolo[1,2-b]pyridazin-4-yl)piperazin-1-yl)methanone]: the IC50 is under 10 nM in test [1] and under 100 nM at human ALK2 R206H.

With `N#C[C@@H]1C[C@H]1C(=O)N1CCN(c2ccnn3cc(-c4ccc([C@@]5(F)CCCNC5)cc4)cc23)CC1` [Compound 514], the IC50 in test [1] is under 10 nM; on human ALK2 R206H, under 100 nM.

As for `CC(C)N1CC2(CN(c3ccc(-c4cc5c(N6CCN(C(=O)[C@H]7C[C@@H]7F)CC6)ccnn5c4)cc3)C2)C1` [Compound 623], the results for the concentration for half-maximal inhibition (IC50) (in test [1]; on human ALK2 R206H) were under 10 nM and 100 to 500 nM, respectively.

Regarding `COC[C@@H](C)N1CCC(OC)(c2ccc(-c3cc4c(N5CCN(C(=O)[C@H]6C[C@H](C#N)C6)CC5)ccnn4c3)cc2)CC1` [Compound 746], the IC50 in test [1] was under 10 nM; at human ALK2 R206H, under 100 nM.

On to `O=C(OC1COC1)N1CCN(c2ccnn3cc(-c4ccc([C@H]5CCCN5)cn4)cc23)CC1` [Compound 477], for which the IC50 in test [1] is under 10 nM; at human ALK2 R206H, under 100 nM.

Turning to `CCN1CCC(c2ccc(-c3cc4c(N5CCN(C(=O)N6CC(C#N)C6)CC5)ccnn4c3)cc2)CC1` [Compound 370], the IC50 was under 10 nM in test [1] and under 100 nM on human ALK2 R206H.

`CCN1CCC[C@H](c2ccc(-c3cc4c(N5CCN(C(=O)C6CC6)CC5)ccnn4c3)cc2)C1` [Compound 207]: the IC50 in test [1] was under 10 nM; at human ALK2 R206H, under 100 nM.
